From patent publication US12435062B2, “Amide compounds and uses thereof” (HUTCHISON MEDIPHARMA LIMITED, priority 2020, dated 2025) come the findings set out here.

Assay [1] concerns the target Recombinant human CSF1R kinase (Homo sapiens (Human), UniProt P07333). Type of assay: biochemical. As to conditions: Z-LYTE Tyr 1 peptide substrate.
Procedure: Measurement of CSF1R Kinase Activity at Molecular Level
1. Reagents and materials:
• Z-LYTE™ Tyr 1 peptide substrate: Invitrogen, PV3190; • 5× kinase buffer: Invitrogen, PV3189; • 10 mM ATP: Invitrogen, PV3227; • Development reagent B: Invitrogen, PV3295; • Development buffer: Invitrogen, P3127; • Stopping solution: Invitrogen, P3094; • Recombinant human CSF1R kinase: Invitrogen, PR4598A; • 384 well plate, black: Corning, 3575; Envision: Perkin Elmer. 2. Preparation of reaction solutions
1) 1.33× kinase buffer: 5× kinase buffer was diluted to a 1.33× kinase buffer with ddH2O.
2) Dilution of a 4× test compound: The test compound was diluted in gradient to 4-fold the reaction concentration and the concentration of DMSO was kept at 8%. The final concentration of the compound in reaction was: 1, 0.33, 0.11, 0.037, 0.012, 0.004, 0.0014, 0.00046 μM, and the final concentration of DMSO was 2%.
3) A mixture of kinase/peptide substrate: In 1.33× kinase buffer, the kinase and Z-LYTE™ Tyr 1 peptide substrate were diluted to 0.12 μg/mL and 4 μM, respectively, to prepare a mixture of kinase/peptide substrate. The mixture was mixed gently with a pipette.
4) A phosphorylated peptide substrate solution (PP solution): 0.4 μL of Z-LYTE™ Tyr1 phosphorylated peptide substrate was added to 99.6 μL of 1.33× kinase buffer.
5) ATP solution: 10 mM of ATP was diluted to 760 μM with 1.33× kinase buffer to prepare ATP solution.
6) Development solution: Development reagent B was diluted with Development buffer at a ratio of 1:200.
1) Kinase reaction (10 μL system)
2.5 μL of 4× test compound was added to each reaction well of the 384 plate, and the corresponding volume of 8% DMSO was added to the control well. The plate was placed on ice. 5 μL of a mixture of kinase/peptide substrate, 2.5 μL of kinase buffer and ATP solution were successively added to each well. Three control groups were set up: Group C1 contains only kinase buffer, group C2 contains the mixture of kinase/peptide substrate, kinase buffer and ATP, and group C3 contains 5 μL of PP solution. After adding the reaction components, the 384-well plate was sealed and incubated at 25-30° C. for 1 h in dark.
5 μL of Development solution was added to each well, sealed and incubated at 25-30° C. for another 1 h in dark.
3) Reaction stopping and plate reading
5 μL of stopping solution was added to each well. The Coumarin value (excitation at 400 nm, emission at 445 nm) and Fluorescein value (excitation at 400 nm, emission at 520 nm) were measured, respectively.
ER (emission ratio): Coumarin emission read-out (445 nm)/Fluorescein emission read-out (520 nm); • C3 445 nm: 100% phosphorylated Coumarin emission read-out; • C3 520 nm: 100% phosphorylated Fluorescein emission read-out; • C1 445 nm: 0% phosphorylated Coumarin emission read-out; • C1 520 nm: 0% phosphorylated Fluorescein emission read-out. Inhibition rate % (IR)=[1−% phosphorylation ratetest sample/100% phosphorylation ratecontrol]×100%
% phosphorylation ratetest sample: phosphorylation rate of the test compound; • 100% phosphorylation ratecontrol: phosphorylation rate of C3 control group.
5. IC50 values: calculated by using software XL-Fit™ (version 5.3) supplied by ID Business Solutions (Guildford, UK), which is an additional software to Microsoft Excel.
Assay [2] deals with CSF1R phosphorylation in THP-1 cells (Homo sapiens (Human), UniProt P07333). The assay is described as follows: Detection of CSF1R phosphorylation activity at cell level (THP-1, M-CSF stimulated, ELISA). In kind it is cell-based. As to conditions: p-CSF1R ELISA, compound 60 min, 300 ng/mL M-CSF 1 min. Here is the method: Detection of CSF1R Phosphorylation Activity at Cell Level
Sequence of CSF1R phosphorylation in THP-1 cells (P07333 20-972): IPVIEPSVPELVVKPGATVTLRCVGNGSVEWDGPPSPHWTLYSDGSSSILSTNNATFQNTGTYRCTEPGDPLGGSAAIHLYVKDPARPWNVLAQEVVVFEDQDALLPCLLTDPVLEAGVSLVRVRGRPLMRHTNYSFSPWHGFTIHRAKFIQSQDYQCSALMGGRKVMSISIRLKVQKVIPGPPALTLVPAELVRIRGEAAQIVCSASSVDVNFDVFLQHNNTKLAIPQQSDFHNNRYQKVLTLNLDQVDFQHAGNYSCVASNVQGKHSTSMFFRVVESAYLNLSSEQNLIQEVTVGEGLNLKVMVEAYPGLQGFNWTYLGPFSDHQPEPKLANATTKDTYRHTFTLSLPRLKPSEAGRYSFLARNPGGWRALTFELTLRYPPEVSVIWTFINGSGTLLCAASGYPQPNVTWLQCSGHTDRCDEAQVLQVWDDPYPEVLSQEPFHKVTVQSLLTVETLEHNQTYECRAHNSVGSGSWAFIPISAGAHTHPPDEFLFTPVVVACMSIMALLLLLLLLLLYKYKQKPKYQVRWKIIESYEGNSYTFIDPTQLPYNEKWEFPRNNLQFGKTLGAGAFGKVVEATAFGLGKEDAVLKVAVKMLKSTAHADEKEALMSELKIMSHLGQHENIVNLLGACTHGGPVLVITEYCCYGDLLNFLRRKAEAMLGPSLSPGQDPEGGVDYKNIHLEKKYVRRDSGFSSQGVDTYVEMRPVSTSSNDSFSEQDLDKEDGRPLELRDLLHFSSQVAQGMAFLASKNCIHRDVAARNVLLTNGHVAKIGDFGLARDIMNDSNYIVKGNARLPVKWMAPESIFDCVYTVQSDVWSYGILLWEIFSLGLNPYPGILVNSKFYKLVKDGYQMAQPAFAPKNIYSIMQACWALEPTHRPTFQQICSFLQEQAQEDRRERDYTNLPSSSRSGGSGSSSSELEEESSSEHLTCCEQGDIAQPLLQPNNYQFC
THP-1 (ATCC), human acute monocytic leukemia cells. The cells were cultured in an RPMI 1640 medium containing 10% FBS.
(§1) 2. Reagents and instruments
• Human phosphorylation-CSF1R ELISA kit: R&D, #DYC3268-2; • RPMI 1640 culture solution: GIBCO, 910491; • Human M-CSF recombinant cytokine: R&D, 9216-MC-500; • Cell lysis buffer: Cell Signal, 99803S; • 1×PBS buffer (1 L): 8.0 g of NaCl, 0.2 g of KCl, 3.58 g of Na2HPO4-12H2O, 0.24 g of KH2PO4 were dissolved in 1 L of dd H2O, and the pH was adjusted to 7.4; • Blocking solution: PBS buffer containing 1% BSA; • PBST washing liquid: PBS buffer containing 0.05% Tween-20; • Chromogenic substrate: R&D, #DY999; • 2N H2SO4; • Microwell plate reader: Labsystems Multiskan K3: Thermo; Envision: Perkin Elmer; • ELISA plate: Corning, #9018; • Cell culture plate: Facol, #353027. 3. Treatment of cells and preparation of lysis buffer
THP-1 cells were resuspended in RPMI-1640 culture solution containing 2% FBS, and the culture was added to a 96-well plate at a density of 5×10^4/well, 50 μL/well, and cultured in a cell incubator at 5% CO2 and 37° C. overnight; The test compound was diluted with a serum-free RPMI-1640 medium to 3, 1.1, 0.37, 0.12, 0.04, 0.014, 0.005 and 0.002 μM, and the concentration of DMSO was 5%. 5 μL of the diluted compound was added to the 50 μL cell culture system, the culture was cultured in a 5% CO2, 37° C. cell incubator for 60 min, 300 ng/mL of M-CSF was added to the cells, and the mixture was stimulated in the 37° C. cell incubator for 1 min, added 50 μL of cell lysis buffer, and stored in a refrigerator at −80° C.
100 μL/well of the p-CSF1R capture antibody diluted to 0.8 μg/mL with PBS was added to the ELISA plate, and the plate was coated on a shaker at room temperature overnight. The culture was washed with PBST, and then added blocking solution and incubated at room temperature for 2 h. The culture was washed with PBST, added 90 μL of cell lysis buffer, and incubated on a shaker at 25° C. for 2 h. The plate was washed with PBST three times, added 100 μL of anti-p-tyrosine-HRP detection antibody diluted with 0.1% PBS-BSA diluent, and incubated on a shaker at 25° C. for 2 h. The plate was washed with PBST washing liquid, added 100 μL of chromogenic substrate and incubated at room temperature for 10-20 min. The reaction was stopped by adding 50 μL of 2N H2SO4. The optical density signal (450/570 nm) of each well was detected in Labsystems Multiskan K3 or Envision.
wherein • Drug-treated well read-out: indicating the optical density signal of a cell well with the test compound treatment. • Background read-out: indicating the optical density signal of a well without cells but with cell lysis buffer. • Cell well read-out: indicating the optical density signal of a cell well not treated with the compound. 6. Calculation of IC50: obtained by using XL-Fit 5.3 software. 7. Test results

A further assay deals with Ba/F3^BCR-FMS-11 cells. The assay is described as follows: Cell proliferation experiment (Ba/F3^BCR-FMS-11, cckit-8). Type of assay: cell-based, mouse. The settings on record: Ba/F3^BCR-FMS-11 cell proliferation. Here is the method: Cell Proliferation Experiment
Ba/F3^BCR-FMS-11, mouse primary B lymphocytes stably expressing the BCR-FMS fusion gene. The cells were cultured in an RPMI 1640 medium containing 10% FBS.
as §1
• cckit-8 kit: Dojindo, 9 CK04; • Envision: Perkin Elmer; • Cell culture plate: Facol, 9353027. 3. Experimental steps
The BCR-FMS fusion gene was transfected into Ba/F3 cells, and the cell line Ba/F3^BCR-FMS-11 that stably expresses BCR-FMS and grows depending on CSF-1R was screened. Ba/F3^BCR-FMS-11 cell proliferation experiments is completed by using the Cell Counting kit cckit-8 in a 96-well plate. In a 96-well plate, 5000/well of Ba/F3^BCR-FMS-11 cells were inoculated at 100 μL/well. […] 10 μL of the compound dilutions with the above 8 concentrations were added to the culture cell wells. The culture was incubated in a 37° C. and 5% CO2 cell incubator for 72 hours. 10 μL of Cell Counting kit cckit-8 detection reagent was added to each well, and incubated at 37° C. and 5% CO2 in a cell incubator for another 1 h. The optical density absorption value at 450 nm of each well was detected by using Perkin Elmer Envision instrument.
wherein • Drug-treated well read-out: indicating the optical density signal of a cell well with the test compound treatment. • Cell well read-out: indicating the optical density signal of a cell well not treated with the test compound (only 0.5% DMSO). • Background read-out: indicating the optical density signal of a well with the cell medium. 5. Calculation of IC50: obtained by using XL-Fit 5.3 software. 6. Test results

Sequence of Recombinant human CSF1R kinase (P07333 20-972): as above

On to `COc1cc(Oc2ccnc(-c3cnn(C)c3)c2)ccc1NC(=O)c1cccn(C(C)C)c1=O` [Compound 18], for which the IC50 in assay [1] was determined as 13 nM; in assay [2] it was 60 nM; in the assay on Ba/F3^BCR-FMS-11 cells (Mus musculus, 72 h) it was 57 nM.
Regarding `CC(C)n1cccc(C(=O)Nc2ccc(Oc3ccnc(-c4cnn(C)c4)c3)cc2F)c1=O` [Compound 20], the 50% inhibitory concentration (IC50) in assay [1] was 8 nM; in assay [2] it was 109 nM; in the assay on Ba/F3^BCR-FMS-11 cells (Mus musculus, 72 h), 44 nM.
`Cn1cnc(-c2cc(Oc3cnc(NC(=O)c4cccn(C)c4=O)c(F)c3)ccn2)c1` [Compound 21]: the half-inhibitory concentration (IC50) in assay [1] came to 28 nM; in assay [2] it was 43 nM; with Ba/F3^BCR-FMS-11 cells (Mus musculus, 72 h), 73 nM.
Turning to `Cn1cc(-c2cc(Oc3cnc(NC(=O)c4cccn(C)c4=O)c(F)c3)ccn2)cn1` [Compound 22], the 50% inhibitory concentration (IC50) in assay [1] came to 11 nM; in assay [2], 10 nM; in the assay on Ba/F3^BCR-FMS-11 cells (Mus musculus, 72 h), 14 nM.
As for `Cc1ncc(C(=O)Nc2ncc(Oc3ccnc(-c4cnn(C)c4)c3)cc2F)c(=O)n1C` [Compound 23], the half-maximal inhibitory concentration (IC50) worked out at 22 nM in assay [1]; 38 nM in assay [2]; 45 nM with Ba/F3^BCR-FMS-11 cells (Mus musculus, 72 h).
Turning to `Cc1cc(Oc2ccnc(-c3cnn(C)c3)c2)cnc1NC(=O)c1cccn(C(C)C)c1=O` [Compound 24], the IC50 in assay [1] worked out at 30 nM; in assay [2] it was 59 nM; with Ba/F3^BCR-FMS-11 cells (Mus musculus, 72 h), 37 nM.
With `CC(C)n1cccc(C(=O)Nc2ncc(Oc3ccnc(-c4cnn(C)c4)c3)cc2C#N)c1=O` [Compound 25], the half-inhibitory concentration (IC50) in assay [1] is 16 nM; in assay [2], 38 nM; with Ba/F3^BCR-FMS-11 cells (Mus musculus, 72 h), 66 nM.
For `Cn1cc(-c2cc(Oc3ccc(NC(=O)c4ccc5n(c4=O)CCC5)nc3)ccn2)cn1` [Compound 27], the IC50 in assay [1] is 8 nM; in assay [2], 18 nM; with Ba/F3^BCR-FMS-11 cells (Mus musculus, 72 h), 8 nM.
For `Cc1ncc(C(=O)Nc2ccc(Oc3ccnc(-c4cn(C)cn4)c3)cn2)c(=O)n1C` [Compound 30], the IC50 in assay [1] came to 35 nM; in assay [2], 14 nM; in the assay on Ba/F3^BCR-FMS-11 cells (Mus musculus, 72 h) it was 24 nM.
On the same counts, the results for `Cc1cn(-c2cc(Oc3ccc(NC(=O)c4cnc(C)n(C)c4=O)nc3)ccn2)cn1` [Compound 32] are 59 nM, 15 nM and 99 nM.
On to `Cc1ncc(C(=O)Nc2ccc(Oc3ccnc(-c4cccnc4)c3)cn2)c(=O)n1C` [Compound 33], for which the half-maximal inhibitory concentration (IC50) amounted to 62 nM in assay [1]; 15 nM in assay [2]; 58 nM in the assay with Ba/F3^BCR-FMS-11 cells (Mus musculus, 72 h).
Consider `Cc1ncc(C(=O)Nc2ccc(Oc3ccnc(-c4ccccn4)c3)cn2)c(=O)n1C` [Compound 34], for which the IC50 amounted to 79 nM in assay [1]; 24 nM in assay [2]; 125 nM in the assay with Ba/F3^BCR-FMS-11 cells (Mus musculus, 72 h).
Consider `Cc1cccc(Nc2cc(Oc3ccc(NC(=O)c4cnc(C)n(C)c4=O)nc3)ccn2)n1` [Compound 36], for which the half-inhibitory concentration (IC50) was determined as 28 nM in assay [1], 8 nM in assay [2] and 23 nM in the assay with Ba/F3^BCR-FMS-11 cells (72 hours).
As to `CCn1cc(-c2cc(Oc3ccc(NC(=O)c4cnc(C)n(C)c4=O)nc3)ccn2)cn1` [Compound 38], the concentration for half-maximal inhibition (IC50) is 12 nM in assay [1]; 7 nM in assay [2]; 17 nM in the assay with Ba/F3^BCR-FMS-11 cells (Mus musculus, 72 h).
Turning to `Cc1ncc(C(=O)Nc2ccc(Oc3ccnc(-c4cnn(C(C)C)c4)c3)cn2)c(=O)n1C` [Compound 39], the half-inhibitory concentration (IC50) in assay [1] is 33 nM; in assay [2], 12 nM; in the assay on Ba/F3^BCR-FMS-11 cells (Mus musculus, 72 h), 63 nM.
Regarding `Cc1ncc(C(=O)Nc2ccc(Oc3ccnc(-c4ccncc4)c3)cn2)c(=O)n1C` [Compound 41], the IC50 in assay [1] was determined as 27 nM; in assay [2], 19 nM; in the assay on Ba/F3^BCR-FMS-11 cells (Mus musculus, 72 h) it was 52 nM.
For `Cc1ncc(C(=O)Nc2ccc(Oc3ccnc(Nc4ccn(C)n4)c3)cn2)c(=O)n1C` [Compound 42], the IC50 was 5 nM in assay [1]; 6 nM in assay [2]; 6 nM with Ba/F3^BCR-FMS-11 cells (Mus musculus, 72 h).
For `Cc1ncc(C(=O)Nc2ccc(Oc3ccnc(Nc4ccnn4C)c3)cn2)c(=O)n1C` [Compound 43], the IC50 in assay [1] is 6 nM; in assay [2], 6 nM; in the assay with Ba/F3^BCR-FMS-11 cells (Mus musculus, 72 h) it was 5 nM.
For the compound `Cn1ccc(Nc2cc(Oc3ccc(NC(=O)c4cnc5n(c4=O)CCC5)nc3)ccn2)n1` [Compound 44], the IC50 in assay [1] stood at 7 nM; in assay [2], 3 nM; in the assay on Ba/F3^BCR-FMS-11 cells (Mus musculus, 72 h) it was 6 nM.
For the compound `Cn1cc(Nc2cc(Oc3ccc(NC(=O)c4cnc5n(c4=O)CCC5)nc3)ccn2)cn1` [Compound 45], the IC50 in assay [1] is 9 nM; in assay [2], 3 nM; in the assay with Ba/F3^BCR-FMS-11 cells (Mus musculus, 72 h), 9 nM.
Take `Cn1ccc(Nc2cc(Oc3ccc(NC(=O)c4cccn(C)c4=O)nc3)ccn2)n1` [Compound 46]: the IC50 stood at 12 nM in assay [1]; 9 nM in assay [2]; 20 nM with Ba/F3^BCR-FMS-11 cells (Mus musculus, 72 h).
On the same counts, the results for `Cn1nccc1Nc1cc(Oc2ccc(NC(=O)c3cnc4n(c3=O)CCC4)nc2)ccn1` [Compound 47] are 5 nM, 3 nM and 6 nM.
`Cn1nccc1Nc1cc(Oc2ccc(NC(=O)c3cccn(C)c3=O)nc2)ccn1` [Compound 48]: the half-inhibitory concentration (IC50) worked out at 5 nM in assay [1]; 5 nM in assay [2]; 5 nM with Ba/F3^BCR-FMS-11 cells (Mus musculus, 72 h).
With `Cc1ncc(C(=O)Nc2ccc(Oc3ccnc(-c4cnn(C(F)F)c4)c3)cn2)c(=O)n1C` [Compound 49], the IC50 is 23 nM in assay [1]; 14 nM in assay [2]; 24 nM in the assay on Ba/F3^BCR-FMS-11 cells (Mus musculus, 72 h).
On the same counts, the results for `Cc1ncc(C(=O)Nc2ccc(Oc3ccnc(-c4ccc(F)cc4)c3)cn2)c(=O)n1C` [Compound 50] are 78 nM, 54 nM and 112 nM.
On the same counts, the results for `Cc1ncc(C(=O)Nc2ccc(Oc3ccnc(-c4ccccc4)c3)cn2)c(=O)n1C` [Compound 51] are 56 nM, 67 nM and 97 nM.
For `CCn1cccc(C(=O)Nc2ccc(Oc3ccnc(-c4cnn(C)c4)c3)cn2)c1=O` [Compound 55], the 50% inhibitory concentration (IC50) is 3 nM in assay [1]; 7 nM in assay [2]; 5 nM in the assay with Ba/F3^BCR-FMS-11 cells (Mus musculus, 72 h).
`CC(C)n1cncc(C(=O)Nc2ccc(Oc3ccnc(-c4cnn(C)c4)c3)cn2)c1=O` [Compound 56]: the IC50 in assay [1] is 4 nM; in assay [2], 21 nM; in the assay with Ba/F3^BCR-FMS-11 cells (Mus musculus, 72 h), 8 nM.
With `CC(C)n1cc(Cl)cc(C(=O)Nc2ccc(Oc3ccnc(-c4cnn(C)c4)c3)cn2)c1=O` [Compound 57], the IC50 in assay [1] worked out at 24 nM; in assay [2], 43 nM; in the assay with Ba/F3^BCR-FMS-11 cells (Mus musculus, 72 h) it was 12 nM.
Regarding `Cn1cc(-c2cc(Oc3ccc(NC(=O)c4nccn(C)c4=O)nc3)ccn2)cn1` [Compound 58], the IC50 in assay [1] was found to be 69 nM; in assay [2], 126 nM; with Ba/F3^BCR-FMS-11 cells (Mus musculus, 72 h) it was 179 nM.
